Results: patent US7498353B2, “Heterocyclic anti-viral compounds comprising metabolizable moieties and their uses” (priority 2005, dated 2009)
pIC50: −log10 of the molar value. Where two headings read alike, the source gives them in different places.

Experiments:
[1] = Pharmacokinetic studies in portal/jugular vein cannulated rats after oral administration; assay type: in vivo, male Spraque-Dawley rats; conditions: for AUC: male, Sprague-Dawley, rat, 5 mg/kg oral dose of prodrug
Experimental: Pharamcokinetic studies were conducted in rats containing surgically implanted cannula in the portal and jugular veins. Blood samples were taken simultaneously from both cannula at various times after oral administration of the compounds. In the portal vein, the prodrugs are detected and, in some cases, the active compound, A-B—C—NHCOCHX2, has also been detected. The presence of active compound in the portal vein samples has been attributed to metabolism of the prodrug in transit through the gut wall. […] In the jugular samples, many, but not all, of the prodrugs have been detected in systemic circulation, depending on the hepatic extraction ratio of the prodrug.
Compounds were dissolved in a mixture of TPGS:PEG:PG (35%:60%:5%) and diluted with saline for oral administration. Typically, 6.5 mg of compound was dissolved in 1 ml of the organic mixture and added to 5.5 ml of saline. Animals were dosed with 5 ml/kg of this mixture to give a typical dose of 5 mg/kg. All animal studies were conducted in male Spraque-Dawley rats and the animals were fasted overnight prior to dose administration. Surgeries (to implant blood sampling cannula) were conducted at least two days prior to the study. Blood samples (100 μl) were collected using sodium heparin as anticoagulant and added to 300 μl of a mixture of acetate buffer (100 mM, pH=6.5):acetonitrile:ethanol:DMSO (2:1:1:2 v/v). Samples were centrifuged and the supernatant was analyzed by LC/MS/MS using the procedures outlined above. Standards were prepared similarly using fresh rat blood from naive animals.
No. 66 and Cpd. No. 64 (Table 3). […] Because the portal blood flows directly to the liver, the intact active parent compound may exert an anti-viral effect in the liver.

[2] = test system: HCV replicon in 5-2 Luc replicon-comprising cells; assay: HCV replicon assay, luciferase readout (HEPC_REPLICON-LUC); assay type: cell-based; conditions: Hepatitis C virus, read-out: HEPC_REPLICON-LUC Result Value (IC50)
Excerpt: In one embodiment, the inhibitory activity of the metabolically active agent of the prodrug can be confirmed in a replicon assay that assesses the ability of a test compound to block or inhibit HCV replication in replicon cells. One example of a suitable replicon assay is the liver cell-line Huh 7-based replicon assay described in Lohmann et al., 1999, Science 285:110-113. A specific example of this replicon assay which utilizes luciferase translation is provided in the Examples Section. In one embodiment of this assay, the amount of test prodrug that yields a 50% reduction in translation as compared to a control cell (IC50) may be determined.
The inhibitory activity of certain prodrugs of the invention, which may inhibit HCV translation or replication prior to metablism and/or are metabolized into active agents, was confirmed using an HCV replicon assay. The HCV replicon can include such features as the HCV 5′ untranslated region including the HCV IRES, the HCV 3′ untranslated region, selected HCV genes encoding HCV polypeptides, selectable markers, and a reporter gene such as luciferase, GFP, etc. In the assay, actively dividing 5-2 Luc replicon-comprising cells (obtained from Ralf Bartenschlager; see Lohmann et al., 1999, Science 285:110-113) were seeded at a density of between about 5,000 and 7,500 cells/well onto 96 well plates (about 90 μl of cells per well) and incubated at 37° C. and 5% CO2 for 24 hours. Then, the test prodrug (in a volume of about 10 μl) was added to the wells at various concentrations and the cells were incubated for an additional 24-48 hours before luciferase assay. The media was aspirated from each well and Bright-Glo (Promega, Madison, Wis.) luciferase assay reagents were added to each well according to the manufacturer's instructions. Briefly, the Bright-Glo reagent was diluted 1:1 with PBS and 100 μl of diluted reagent was added to each well. After 5 min of incubation at room temperature, luciferin emission was quantified with a luminometer. In this assay, the amount of test prodrug that yielded a 50% reduction in luciferase emission (IC50) was determined. This IC50 value may represent the antiviral activity of the prodrug itself, the activity of prodrug transformed into its active metabolized form, or a combination of the two.

[3] = test system: HCV NS5A protein in 9-13 replicon cells; assay: Quantitative Western blot replicon assay (HEPC_REPLICON-ICWESTERN); assay type: cell-based, Hepatitis C virus (HCV); conditions: Hepatitis C virus, read-out: HEPC_REPLICON-ICWESTERN Result Value (IC50)
[4] = 5-2 Luc replicon cells, 50% reduction in luciferase emission
[5] = 9-13 replicon cells, 50% reduction in NS5A protein

SMILES | AUC ([1]; portal vein blood) [ng·h/mL] | pIC50 [2, 4] | pIC50 [3, 5] | other results
COCN(C(=O)C(Cl)Cl)c1cccc(-c2cc(-c3c(Cl)cccc3Cl)no2)c1 [Cpd. No. 6, 2,2-Dichloro-N-(3-(3-(2,6-dichlorophenyl)isoxazol-5-yl)phenyl)-N-(methoxymethyl)acetamide] | 98.3 | > 6.00 | > 6.00 | –
N[C@H](C(=O)NCCN(C(=O)C(Cl)Cl)c1cccc(-c2cc(-c3c(Cl)cccc3Cl)no2)c1)c1ccccc1 [Cpd. No. 18, (S)-N-(2-(2-Amino-2-phenylacetamido)ethyl)-2,2-dichloro-N-(3-(3-(2,6-dichlorophenyl)isoxazol-5-yl)phenyl)acetamide] | 627 | – | < 4.70 | –
CCOP(=O)(CCN(C(=O)C(Cl)Cl)c1cccc(-c2cc(-c3c(Cl)cccc3Cl)no2)c1)OCC [Cpd. No. 1, Diethyl 2-(2,2-Dichloro-N-(3-(3-(2,6-dichlorophenyl)isoxazol-5-yl)phenyl)acetamido)ethylphosphonate] | – | – | – | AUC ([1]; in vivo): 176 ng·h/mL; pIC50 [2]: < 4.70; pIC50 [3]: 4.70 to 6.00
O=C(Nc1ccnc(-c2cc(-c3c(Cl)cccc3Cl)no2)c1)C(Cl)Cl [Cpd. No. 64] | – | – | – | Active parent compound concentrations versus dose ([1]; oral, portal vein): increase in a linear fashion with dose; Absorption and hydrolysis of the orally administered parent compound ([1]; oral, portal vein plasma): well absorbed but is extensively hydrolyzed to the inactive metabolite
O=C(C(Cl)Cl)N(CCP(=O)(O)O)c1cccc(-c2cc(-c3c(Cl)cccc3Cl)no2)c1 [Cpd. No. 2, 2-(2,2-Dichloro-N-(3-(3-(2,6-dichlorophenyl)isoxazol-5-yl)phenyl)acetamido)ethylphosphonic acid] | – | < 4.70 | < 4.70 | –
COCN(C(=O)C(Cl)Cl)c1ccnc(-c2cc(-c3c(Cl)cccc3Cl)no2)c1 [Cpd. No. 7, 2,2-Dichloro-N-(2-(3-(2,6-dichlorophenyl)isoxazol-5-yl)pyridin-4-yl)-N-(methoxymethyl)acetamide] | – | 4.70 to 6.00 | > 6.00 | –
